What was measured:
Format in all cases: cell-based
ER-α = target: T1, ER-α (Homo sapiens, UniProt P03372); test: ER-α In Cell Western Assay; details: MCF7 cells, 4 hours post compound addition, SP1 anti-ER antibody; read-out: ICW (SP1) max response
T1 construct: MCF7 cells were trypsinized and washed twice; endogenous in cells; host or cells: MCF7 breast cancer cells
T1 sequence (P03372 1-595): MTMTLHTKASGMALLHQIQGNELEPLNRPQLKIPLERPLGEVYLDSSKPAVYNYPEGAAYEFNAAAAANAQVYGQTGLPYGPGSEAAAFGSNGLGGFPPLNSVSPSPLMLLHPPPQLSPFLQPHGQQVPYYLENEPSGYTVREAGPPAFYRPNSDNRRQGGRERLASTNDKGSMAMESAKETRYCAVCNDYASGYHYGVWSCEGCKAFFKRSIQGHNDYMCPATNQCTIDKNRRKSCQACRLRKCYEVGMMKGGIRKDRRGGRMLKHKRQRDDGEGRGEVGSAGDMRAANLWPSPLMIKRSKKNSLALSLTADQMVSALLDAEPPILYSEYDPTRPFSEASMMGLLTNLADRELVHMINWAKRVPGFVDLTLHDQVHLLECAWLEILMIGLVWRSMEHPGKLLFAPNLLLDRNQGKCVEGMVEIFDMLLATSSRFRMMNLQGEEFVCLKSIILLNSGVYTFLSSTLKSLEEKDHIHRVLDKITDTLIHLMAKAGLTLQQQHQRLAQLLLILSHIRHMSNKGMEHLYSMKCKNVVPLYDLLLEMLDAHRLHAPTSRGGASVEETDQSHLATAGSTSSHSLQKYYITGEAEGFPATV
Experimental: MCF7 cells were trypsinized and washed twice in Phenol Red Free RPMI containing 5% Charcoal Dextran Stripped serum with 20 mM HEPES and NEAA, then adjusted to a concentration of 200,000 cells per mL with the same medium. Next, 16 μL of the cell suspension (3200 cells) was added to each well of a poly-D-lysine coated 384 well plate, and the cells were incubated at 37° C. over 4 days to allow the cells to adhere and grow. […] At 4 hours post compound addition, the cells were fixed by adding 16 μL of 30% formalin to the 32 μL of cells and compound (10% formalin final concentration) for 20 minutes. Cells were then washed twice with PBS Tween 0.1% and then permeabilized in PBS 0.1% Triton (50 μl/well) for additional 15 minutes. The PBS 0.1% triton was decanted, and the cells were washed: LI-COR blocking buffer (50 μL/well) was added, the plate was spun at 3000 rpm, and then the blocking buffer was decanted. Additional LI-COR blocking buffer (50 μL/well) was added, and the cells were incubated overnight at 4° C. The blocking buffer was decanted, and the cells were incubated overnight at 4° C. with SP1 (Thermo Scientific) anti-ER rabbit monoclonal antibody diluted 1:1000 in LI-COR blocking buffer/0.1% Tween-20. Wells which were treated with blocking buffer with Tween but no antibody were used as a background control. Wells were washed twice with PBS Tween 0.1% to remove free SP1 antibodies, and the cells were incubated at room temp for 60-90 minutes in LI-COR goat anti-rabbit IRDye™ 800CW (1:1000) and DRAQ5 DNA dye (1:10000 of 5 mM stock solution) diluted in LI-COR blocking buffer containing 0.1% Tween-20 and 0.01% SDS. Cells were then washed with 0.1% Tween-20/PBS three times. Plates were scanned on a LI-COR Odyssey infrared imaging system. Integrated intensities in the 800 nm channel and 700 nm channel were measured to determine levels of ER-α and DNA respectively. Percent ER levels were determined as follows: (Integrated intensity […] sample/integrated intensity 700 nm sample)/(Integrated intensity 800 nm untreated cells/integrated intensity 700 nm untreated cells)×100=% ER levels.

MCF-7 cells = test: Breast Cancer Cell Viability Assay (CellTiter-Glo); details: 5 days of compound exposure; for IC50: Homo sapiens, MCF7, 120 h, read-out: MCF7 viab IC50
Experimental: The following day a 10 point, serial 1:5 dilution of each compound was added to the cells in 16 μL at a final concentration ranging from 10-0.00000 μM. After 5 days of compound exposure, 16 μL of CellTiter-GLo (Promega, Madison Wis.) was added to the cells, and the relative luminescence units (RLUs) of each well were determined. CellTiter-Glo added to 32 μL of medium without cells was used to obtain a background value.

[1] = target: T2, estrogen receptor alpha (ESR1) (Homo sapiens, UniProt P03372); test: Breast Cancer Cell ERa High Content Fluorescence Imaging Assay (ER-alpha MCF7 Assay); details: MCF7 cells, 4 hours; plateau of maximal effect; DMSO = 0%, 5 nM Fulvestrant = 100% change in ESR1
T2 construct: MCF7 cells were trypsinized and washed twice; endogenous in cells; host or cells: MCF7 breast cancer cells
T2 sequence (P03372 1-595): T1 sequence (P03372 1-595)
Experimental: Cell plates were incubated at 37° C., for 4 hours. Fixation and permeabilization were carried out using a Biotek EL406 plate washer and dispenser as follows. […] Samples were incubated 30 minutes. Well contents was aspirated and 50 uL/well of Phosphate Buffered Saline (PBS) containing 0.5% w/v bovine serum albumen, 0.5% v/v Triton X-100 (Antibody Dilution Buffer) was added to each well. Samples were incubated for 30 minutes. Well contents were aspirated and washed 3 times with 100 uL/well of PBS. Immunofluorescence staining of estrogen receptor alpha (ESR1) was carried out using a Biotek EL406 plate washer and dispenser as follows. […] Samples were incubated for 2 hours at room temperature. Samples were washed 4 times with 100 uL/well of PBS. […] Samples were incubated for 2 hours at room temperature. Samples were washed 3 times with 100 uL/well of PBS using a Biotek EL406. Quantitative fluorescence imaging of ESR1 was carried out using a Cellomics Arrayscan V (Thermo). […] Channel 1 (DNA stain) was used to define the nuclear region (Circ). […] The “Robust Fit” method was used to define the inflexion point of curve (EC50) and the plateau of the maximal effect (Sinf).

| SMILES | Emax (ER-α) [%] | MCF7 viab max response (MCF-7 cells) | IC50 (MCF-7 cells) [nM] | ER-alpha MCF7 Sinf (%) [1] [%] |
| --- | --- | --- | --- | --- |
| CC1=C(c2cccc(O)c2)C(c2ccc(OCCN3CCCC3)nc2)Oc2ccc(O)cc21 (stereo not drawn) [Example 1, 3-(3-Hydroxyphenyl)-4-methyl-2-(6-(2-(pyrrolidin-1-yl)ethoxy)pyridin-3-yl)-2H-chromen-6-ol] | 65.9 | 53.6 | 0.18 |  |
| CC1=C(c2cccc(O)c2)C(c2ccc(OC[C@H](C)N3CC[C@@H](C)C3)nc2)Oc2ccc(O)cc21 (stereo partly drawn) [Example 2, 3-(3-Hydroxyphenyl)-4-methyl-2-(6-((S)-2-((R)-3-methylpyrrolidin-1-yl)propoxy)pyridin-3-yl)-2H-chromen-6-ol] | 76.1 | 56.9 | 0.13 |  |
| CC1=C(c2cccc(O)c2)C(c2cnc(OC[C@H](C)N3CC[C@@H](C)C3)cn2)Oc2ccc(O)cc21 (stereo partly drawn) [Example 3, 3-(3-Hydroxyphenyl)-4-methyl-2-(5-((S)-2-((R)-3-methylpyrrolidin-1-yl)propoxy)pyrazin-2-yl)-2H-chromen-6-ol] | 83.3 | 61.1 | 0.66 |  |
| CC1=C(c2cccc(O)c2)C(c2cnc(OCCN3CCCC3)cn2)Oc2ccc(O)cc21 (stereo not drawn) [Example 4, 3-(3-Hydroxyphenyl)-4-methyl-2-(5-(2-(pyrrolidin-1-yl)ethoxy)pyrazin-2-yl)-2H-chromen-6-ol] | 70.1 | 49.5 | 0.36 |  |
| CC1=C(c2cccc(O)c2)C(c2ccc(OC[C@H](C)N3CC[C@@H](C)C3)cn2)Oc2ccc(O)cc21 (stereo partly drawn) [Example 5, 3-(3-Hydroxyphenyl)-4-methyl-2-(5-((S)-2-((R)-3-methylpyrrolidin-1-yl)propoxy)pyridin-2-yl)-2H-chromen-6-ol] | 86.7 | 64.2 | 1.23 |  |
| CC1=C(c2ncccc2C)C(c2ccc(OCCN3CC(CF)C3)cc2)Oc2ccc(O)cc21 (stereo not drawn) [Example 33, 2-{4-[2-(3-Fluoromethyl-azetidin-1-yl)-ethoxy]-phenyl}-4-methyl-3-(3-methyl-pyridin-2-yl)-2H-chromen-6-ol] |  |  |  | 96.4 |
| CC1=C(c2cnccc2C)C(c2ccc(OCCN3CC(CF)C3)cc2)Oc2ccc(O)cc21 (stereo not drawn) [Example 34, 2-{4-[2-(3-Fluoromethyl-azetidin-1-yl)-ethoxy]-phenyl}-4-methyl-3-(4-methyl-pyridin-3-yl)-2H-chromen-6-ol] |  |  |  | 97.5 |
| CC1=C(c2cccnc2C)C(c2ccc(OCCN3CC(CF)C3)cc2)Oc2ccc(O)cc21 (stereo not drawn) [Example 35, 2-{4-[2-(3-Fluoromethyl-azetidin-1-yl)-ethoxy]-phenyl}-4-methyl-3-(2-methyl-pyridin-3-yl)-2H-chromen-6-ol] |  |  |  | 98.5 |
| CC1=C(c2cncc(C)c2)C(c2ccc(OCCN3CC(CF)C3)cc2)Oc2ccc(O)cc21 (stereo not drawn) [Example 37, 2-{4-[2-(3-Fluoromethyl-azetidin-1-yl)-ethoxy]-phenyl}-4-methyl-3-(5-methyl-pyridin-3-yl)-2H-chromen-6-ol] |  |  |  | 99.2 |
| CC1=C(c2cncnc2)C(c2ccc(OCCN3CC(CF)C3)cc2)Oc2ccc(O)cc21 (stereo not drawn) [Example 38, 2-{4-[2-(3-Fluoromethyl-azetidin-1-yl)-ethoxy]-phenyl}-4-methyl-3-pyrimidin-5-yl-2H-chromen-6-ol] |  |  |  | 90.3 |
| CC1=C(c2cnc(N)nc2)C(c2ccc(OCCN3CC(CF)C3)cc2)Oc2ccc(O)cc21 (stereo not drawn) [Example 39, 3-(2-Amino-pyrimidin-5-yl)-2-{4-[2-(3-fluoromethyl-azetidin-1-yl)-ethoxy]-phenyl}-4-methyl-2H-chromen-6-ol] |  |  |  | 95.4 |
| CC1=C(c2cncc(S(C)(=O)=O)c2)C(c2ccc(OCCN3CC(CF)C3)cc2)Oc2ccc(O)cc21 (stereo not drawn) [Example 41, 2-{4-[2-(3-Fluoromethyl-azetidin-1-yl)-ethoxy]-phenyl}-3-(5-methanesulfonyl-pyridin-3-yl)-4-methyl-2H-chromen-6-ol] |  |  |  | 98.9 |
| CC1=C(c2cnn(C)c2)C(c2ccc(OCCN3CC(CF)C3)cc2)Oc2ccc(O)cc21 (stereo not drawn) [Example 42, 2-{4-[2-(3-Fluoromethyl-azetidin-1-yl)-ethoxy]-phenyl}-4-methyl-3-(1-methyl-1H-pyrazol-4-yl)-2H-chromen-6-ol] |  |  |  | 95.2 |
| CC1=C(c2cncc(F)c2)C(c2ccc(OCCN3CC(CF)C3)cc2)Oc2ccc(O)cc21 (stereo not drawn) [Example 43, 2-{4-[2-(3-Fluoromethyl-azetidin-1-yl)-ethoxy]-phenyl}-3-(5-fluoro-pyridin-3-yl)-4-methyl-2H-chromen-6-ol] |  |  |  | 97.3 |
| CC1=C(c2cncc(C#N)c2)C(c2ccc(OCCN3CC(CF)C3)cc2)Oc2ccc(O)cc21 (stereo not drawn) [Example 44, 5-(2-{4-[2-(3-Fluoromethyl-azetidin-1-yl)-ethoxy]-phenyl}-6-hydroxy-4-methyl-2H-chromen-3-yl)-nicotinonitrile] |  |  |  | 91.8 |
| CC1=C(C2=CC(=O)CC2)C(c2ccc(OCCN3CC(CF)C3)cc2)Oc2ccc(O)cc21 (stereo not drawn) [Example 45, 3-[2-[4-[2-[3-(fluoromethyl)azetidin-1-yl]ethoxy]phenyl]-6-hydroxy-4-methyl-2H-chromen-3-yl]cyclopent-2-en-1-one] |  |  |  | 96.6 |
| CC1=C(C2CCC(O)C2)C(c2ccc(OCCN3CC(CF)C3)cc2)Oc2ccc(O)cc21 (stereo not drawn) [Example 46, 2-[4-[2-[3-(fluoromethyl)azetidin-1-yl]ethoxy]phenyl]-3-(3-hydroxycyclopentyl)-4-methyl-2H-chromen-6-ol] |  |  |  | 98.3 |
| CC1=C(C2=CC(O)CC2)C(c2ccc(OCCN3CC(CF)C3)cc2)Oc2ccc(O)cc21 (stereo not drawn) [Example 47, 2-[4-[2-[3-(fluoromethyl)azetidin-1-yl]ethoxy]phenyl]-3-(3-hydroxycyclopenten-1-yl)-4-methyl-2H-chromen-6-ol] |  |  |  | 95.4 |
| CC1=C(c2cccc(O)c2)[C@H](c2cnn(CCCN3CC(CF)C3)c2)Oc2ccc(O)cc21 [Example 51, (R)-2-(1-(3-(3-(fluoromethyl)azetidin-1-yl)propyl)-1H-pyrazol-4-yl)-3-(3-hydroxyphenyl)-4-methyl-2H-chromen-6-ol] |  |  |  | 94.7 |
| CC1=C(/C=C/CO)C(c2ccc(OCCN3CC(CF)C3)cc2)Oc2ccc(O)cc21 (stereo not drawn) [Example 52, 2-[4-[2-[3-(fluoromethyl)azetidin-1-yl]ethoxy]phenyl]-3-[(E)-3-hydroxyprop-1-enyl]-4-methyl-2H-chromen-6-ol] |  |  |  | 97.3 |

— US10053451B2, “Heterocyclic estrogen receptor modulators and uses thereof” (priority 2015, dated 2018)
